What all share (assay type): in vivo
Holding throughout (set-up): key: 5: completely killed; 4: seriously injured; 3: considerably injured; 2: somewhat injured; 1: slightly injured; 0: not injured (normally grown)

For data set [1], the system named is cockspur (Panicum crus-galli). The data set is described as follows: Experiment 2 foliage treatment: cockspur. To be noted: 4 weeks after treatment. How it is done:
(§1) Upon seedling stage (two- or three-leaved stage) of rice, cockspur (Panicum crus-galli), garden radish, aobiyu (slender amaranth, Amaranthus viridis) and mehishiba (henry crabgrass, Digitaria cliaris) which were grown on a cultivated soil put in pots of 1/15500 ares, a selected compound obtained in a manner analogous to Example 8, in suspended wettable powder, was sprayed to each plant. After that, the pots were kept in a glass chamber to allow each plant to grow, and after the lapse of 4 weeks from the treatment with the selected compounds the herbicidal effects were evaluated. The evaluation of the herbicidal effects was similarly conducted as to that of Experiment 1.

The test system of data set [2] is aobiyu (slender amaranth, Amaranthus viridis). The data set is described as follows: Experiment 2 foliage treatment: aobiyu. To be noted: 4 weeks after treatment. The method, then:
as §1

For data set [3], the system named is mehishiba (henry crabgrass, Digitaria cliaris). The data set is described as follows: Experiment 2 foliage treatment: mehishiba. To be noted: 4 weeks after treatment. The method, then:
as §1

The test system of data set [4] is garden radish. The data set is described as follows: Experiment 2 foliage treatment: garden radish. As to conditions: 4 weeks after treatment. How it is done:
as §1

Data set [5] has as its system rice. The experiment in a line: Experiment 2 foliage treatment: rice. To be noted: 4 weeks after treatment. The method, then: as §1
Data set [6] relates to mehishiba (henry crabgrass, Digitaria cliaris). The data set is described as follows: Experiment 5 foliage treatment: mehishiba. As to conditions: foliage spray of wettable powder suspension, evaluated 4 weeks after treatment. How it is done:
as §1, with “11,” for “8,”, “as” for “as to”

Data set [7] concerns aobiyu (slender amaranth, Amaranthus viridis). The data set is described as follows: Experiment 5 foliage treatment: aobiyu. As to conditions: foliage spray of wettable powder suspension, evaluated 4 weeks after treatment. How it is done: as §1, with “11,” for “8,”, “as” for “as to”
The test system of data set [8] is tamagayatsuri (small-flowered umbrellaplant, Cyperus difformis). The experiment in a line: Experiment 4 flooded soil treatment: tamagayatsuri. As to conditions: 4 weeks after treatment. The text has this:
(§2) Paddy soil (clay loam) was put into a pot so as to have a surface area of 1/15500 ares. Uniformly mixed seeds of several kinds of weeds, viz., nobie (barnyardgrass, Echinochloa spp.), broad-leaved weeds, hotarui (bulrush, Scirpus juncoides) and tamagayatsuri (small-flowered umbrellaplant, Cyperus difformis), were sown in the surface layer of the soil in each pot, and then paddy rice seedlings at the two- or three-leaved stage were transplanted into each pot to a depth of 2 cm, and water was fed into each pot so as to provide a 3 cm deep water layer on the soil surface. After 3 days, in other words at the initial stage of germination of nobie (barnyardgrass, Echinochloa spp.), a predetermined amount of a selected compound obtained in a manner analogous to Example 11 in the form of diluted aqueous solution was dropped into the water layer in each pot. After that, the pots were kept in a glass chamber to allow the paddy rice and the weeds to grow, and after the lapse of 4 weeks from the treatment with the selected compounds, the herbicidal effects and the degree of injury to the paddy rice were evaluated. The evaluation of the herbicidal effects was similarly conducted as to that of Experiment 1.

For data set [9], the system named is broad-leaved weeds. The data set is described as follows: Experiment 4 flooded soil treatment: broad-leaved weeds. To be noted: 4 weeks after treatment.
Excerpt: as §2

The subject of data set [10] is nobie (barnyardgrass, Echinochloa spp.). The experiment in a line: Experiment 4 flooded soil treatment: nobie. To be noted: 4 weeks after treatment.
Excerpt: as §2

Data set [11] has as its system hotarui (bulrush, Scirpus juncoides). The experiment in a line: Experiment 4 flooded soil treatment: hotarui. To be noted: 4 weeks after treatment.
Excerpt: as §2

Data set [12] concerns garden radish. The data set is described as follows: Experiment 5 foliage treatment: garden radish. As to conditions: foliage spray of wettable powder suspension, evaluated 4 weeks after treatment. How it is done: as §1, with “11,” for “8,”, “as” for “as to”
The test system of data set [13] is paddy rice. The experiment in a line: Experiment 4 flooded soil treatment: injury to paddy rice. To be noted: 4 weeks after treatment.
Excerpt: as §2

Data set [14] concerns rice. The data set is described as follows: Experiment 5 foliage treatment: rice. To be noted: foliage spray of wettable powder suspension, evaluated 4 weeks after treatment. The method, then:
as §1, with “11,” for “8,”, “as” for “as to”

Data set [15] deals with cockspur (Panicum crus-galli). The experiment in a line: Experiment 5 foliage treatment: cockspur. To be noted: foliage spray of wettable powder suspension, evaluated 4 weeks after treatment. How it is done: as §1, with “11,” for “8,”, “as” for “as to”

As for `CCCCOC(=O)C1=C(C(=O)N(C(C)=O)c2cc(SCC(=O)OCC)c(Cl)cc2F)CCCC1` [compound 39], the “Herbicidal Effect cockspur” value in [1] (40 g/10a) and in data set [1] (80 g/10a) was 1 in each case. The “Herbicidal Effect aobiyu” value in [2] (40 g/10a) and in data set [2] (80 g/10a) was 5 throughout. Besides, the “Herbicidal Effect mehishiba” value in data set [3] (40 g/10a) and in data set [3] (80 g/10a) was 1 throughout. Also, the “Herbicidal Effect garden radish” value in [4] (40 g/10a) and in data set [4] (80 g/10a) was 5 in each case. In addition, the “Herbicidal Effect rice” value in data set [5] (40 g/10a) and in data set [5] (80 g/10a) was 1 in each case.
`C#CC(C)Oc1cc(N(C(=O)C2=C(C(=O)OC3CCCC3)CCCC2)C(=O)c2cccnc2)c(F)cc1Cl` (centres unmarked) [compound 62]: the “Herbicidal Effect mehishiba” value in data set [6] (40 g/10a) and in [6] (80 g/10a) was 1 in each case. Besides, the “Herbicidal Effect aobiyu” value in data set [7] (40 g/10a) and in [7] (80 g/10a) was 5 each time. Moreover, the “Herbicidal Effect tamagayatsuri” value in data set [8] (3.13 g/10a) and in [8] (6.25 g/10a) was 5 in each case. The “Herbicidal Effect broad-leaved weed” value in [9] (3.13 g/10a) and in data set [9] (6.25 g/10a) was 5 each time. The “Herbicidal Effect nobie” value in data set [10] (3.13 g/10a) and in data set [10] (6.25 g/10a) was 5 in each case. The “Herbicidal Effect hotarui” value in data set [11] (3.13 g/10a) and in [11] (6.25 g/10a) was 4 throughout. In addition, the “Herbicidal Effect garden radish” value stood at 4.5 in [12] (40 g/10a) and 5 in data set [12] (80 g/10a). Besides, the “Injury of Paddy” value is 0 in data set [13] (3.13 g/10a) and 0.5 in data set [13] (6.25 g/10a). Further, the “Herbicidal Effect rice” value in data set [14] (40 g/10a) and in [14] (80 g/10a) was 1 each time. Moreover, the “Herbicidal Effect cockspur” value in data set [15] (40 g/10a) and in data set [15] (80 g/10a) was 1 throughout.
With `C#CC(C)Oc1cc(N(C(=O)C2=C(C(=O)OCCOC)CCCC2)C(=O)c2ccc(Cl)nc2)c(F)cc1Cl` (centres unmarked) [compound 69], the “Herbicidal Effect mehishiba” value in [6] (40 g/10a) and in data set [6] (80 g/10a) was 2 throughout. Also, the “Herbicidal Effect aobiyu” value in data set [7] (40 g/10a) and in [7] (80 g/10a) was 5 each time. Further, the “Herbicidal Effect tamagayatsuri” value in data set [8] (3.13 g/10a) and in data set [8] (6.25 g/10a) was 5 throughout. The “Herbicidal Effect broad-leaved weed” value in data set [9] (3.13 g/10a) and in data set [9] (6.25 g/10a) was 5 each time. Besides, the “Herbicidal Effect nobie” value in data set [10] (3.13 g/10a) and in data set [10] (6.25 g/10a) was 5 in each case. In addition, the “Herbicidal Effect hotarui” value in data set [11] (3.13 g/10a) stood at 4; in data set [11] (6.25 g/10a) it was 4.5. The “Herbicidal Effect garden radish” value is on record as 4.5 in [12] (40 g/10a) and 5 in data set [12] (80 g/10a). The “Injury of Paddy” value in data set [13] (3.13 g/10a) and in data set [13] (6.25 g/10a) was 0.5 throughout. Further, the “Herbicidal Effect rice” value in data set [14] (40 g/10a) and in data set [14] (80 g/10a) was 1 in each case. In addition, the “Herbicidal Effect cockspur” value in data set [15] (40 g/10a) and in data set [15] (80 g/10a) was 1 in each case.
For `C#CC(C)Oc1cc(N(C(=O)C2=C(C(=O)OC)CCCC2)C(=O)c2cccnc2)c(Cl)cc1Cl` (centres unmarked) [compound 70], the “Herbicidal Effect mehishiba” value in [6] (40 g/10a) and in data set [6] (80 g/10a) was 2 throughout. Besides, the “Herbicidal Effect aobiyu” value in data set [7] (40 g/10a) and in data set [7] (80 g/10a) was 5 each time. For the same compound, the “Herbicidal Effect tamagayatsuri” value in [8] (3.13 g/10a) and in data set [8] (6.25 g/10a) was 5 throughout. The “Herbicidal Effect broad-leaved weed” value in data set [9] (3.13 g/10a) and in data set [9] (6.25 g/10a) was 5 throughout. For the same compound, the “Herbicidal Effect nobie” value in data set [10] (3.13 g/10a) and in [10] (6.25 g/10a) was 5 throughout. Further, the “Herbicidal Effect hotarui” value in data set [11] (3.13 g/10a) and in data set [11] (6.25 g/10a) was 4 in each case. For the same compound, the figures for the “Herbicidal Effect garden radish” value in data set [12] (40 g/10a) and in data set [12] (80 g/10a) were 4 and 5, respectively. The “Injury of Paddy” value in data set [13] (3.13 g/10a) and in data set [13] (6.25 g/10a) was 0 in each case. In addition, the “Herbicidal Effect rice” value in data set [14] (40 g/10a) and in [14] (80 g/10a) was 1 throughout. In addition, the “Herbicidal Effect cockspur” value in data set [15] (40 g/10a) and in data set [15] (80 g/10a) was 1 throughout.
As to `C#CC(C)Oc1cc(N(C(=O)C2=C(C(=O)OCCCC)CCCC2)C(=O)c2cccnc2)c(F)cc1Cl` (centres unmarked) [compound 59], the “Herbicidal Effect mehishiba” value in data set [6] (40 g/10a) and in data set [6] (80 g/10a) was 1 in each case. The “Herbicidal Effect aobiyu” value in data set [7] (40 g/10a) and in data set [7] (80 g/10a) was 5 in each case. For the same compound, the “Herbicidal Effect tamagayatsuri” value in data set [8] (3.13 g/10a) and in data set [8] (6.25 g/10a) was 5 each time. Also, the “Herbicidal Effect broad-leaved weed” value in [9] (3.13 g/10a) and in data set [9] (6.25 g/10a) was 5 throughout. Further, the “Herbicidal Effect nobie” value in data set [10] (3.13 g/10a) and in data set [10] (6.25 g/10a) was 5 throughout. In addition, the “Herbicidal Effect hotarui” value in [11] (3.13 g/10a) and in data set [11] (6.25 g/10a) was 4 throughout. Besides, the “Herbicidal Effect garden radish” value in data set [12] (40 g/10a) and in data set [12] (80 g/10a) was 5 each time. Besides, the “Injury of Paddy” value in data set [13] (3.13 g/10a) and in data set [13] (6.25 g/10a) was 0.5 in each case. In addition, the “Herbicidal Effect rice” value in [14] (40 g/10a) and in [14] (80 g/10a) was 1 each time. The entries for the “Herbicidal Effect cockspur” value in [15] (40 g/10a) and in data set [15] (80 g/10a) were 0 and 1, respectively.
Consider `C#CC(C)Oc1cc(N(C(=O)C2=C(C(=O)OCCC)CCCC2)C(=O)c2cccnc2)c(F)cc1Cl` (centres unmarked) [Compound No. 58], for which the “Herbicidal Effect mehishiba” value stood at 1 in data set [6] (40 g/10a) and 3 in data set [6] (80 g/10a). Moreover, the “Herbicidal Effect aobiyu” value in data set [7] (40 g/10a) and in [7] (80 g/10a) was 5 in each case. The “Herbicidal Effect tamagayatsuri” value in data set [8] (3.13 g/10a) and in data set [8] (6.25 g/10a) was 5 each time. The “Herbicidal Effect broad-leaved weed” value in data set [9] (3.13 g/10a) and in data set [9] (6.25 g/10a) was 5 in each case. For the same compound, the “Herbicidal Effect nobie” value in data set [10] (3.13 g/10a) and in [10] (6.25 g/10a) was 5 throughout. Besides, the entries for the “Herbicidal Effect hotarui” value in data set [11] (3.13 g/10a) and in [11] (6.25 g/10a) were 4 and 4.5, respectively. Moreover, the “Herbicidal Effect garden radish” value in data set [12] (40 g/10a) and in data set [12] (80 g/10a) was 5 each time. Further, the figures for the “Injury of Paddy” value in data set [13] (3.13 g/10a) and in data set [13] (6.25 g/10a) were 0 and 0.5, respectively. For the same compound, the “Herbicidal Effect rice” value in [14] (40 g/10a) and in data set [14] (80 g/10a) was 1 throughout. In addition, the “Herbicidal Effect cockspur” value in data set [15] (40 g/10a) and in data set [15] (80 g/10a) was 1 each time.
